Legend:
[1] = Crystallinity by powder X-ray diffraction after drying; assay type: physicochemical; details: dried in a usual manner, water content at most 4%
Description: (§1) However, in the conventional method for producing pitavastatin calcium, there has been no disclosure relating to the water content or the crystal form.

[2] = Stability data of drug substance (influence of water content), storage at 40° C.; assay type: physicochemical
Description: as §1

[3] = 40° C. air tight, Initial stage

Analogous substance (%) ([2]; 40° C. air tight, 30 Days): 0.208% | Pitavastatin calcium (%) ([2]; 40° C. air tight, 30 Days): 99.42% | Water content (%) ([2]; 40° C. air tight, 30 Days): 7.85% | Analogous substance (%) ([2]; 40° C. air tight, 60 Days): 0.189% | Pitavastatin calcium (%) ([2]; 40° C. air tight, 60 Days): 99.79% | Water content (%) ([2]; 40° C. air tight, 60 Days): 7.88% | Analogous substance (%) ([2]; 40° C. air tight, 90 Days): 0.211% | Pitavastatin calcium (%) ([2]; 40° C. air tight, 90 Days): 99.64% | Water content (%) ([2]; 40° C. air tight, 90 Days): 7.81% | Analogous substance (%) [2, 3]: 0.179% | Pitavastatin calcium (%) [2, 3]: 99.38% | Water content (%) [2, 3]: 7.89% | Analogous substance (%) ([2]; 40° C. open air, 30 Days): 0.742% | Pitavastatin calcium (%) ([2]; 40° C. open air, 30 Days): 99.26% | Water content (%) ([2]; 40° C. open air, 30 Days): 2.45% | Analogous substance (%) ([2]; 40° C. open air, 60 Days): 1.347% | Pitavastatin calcium (%) ([2]; 40° C. open air, 60 Days): 97.19% | Water content (%) ([2]; 40° C. open air, 60 Days): 1.99% | Analogous substance (%) ([2]; 40° C. open air, 90 Days): 2.099% | Pitavastatin calcium (%) ([2]; 40° C. open air, 90 Days): 96.49% | Water content (%) ([2]; 40° C. open air, 90 Days): 1.77% | Analogous substance (%) ([2]; 40° C. open air, Initial stage): 0.179% | Pitavastatin calcium (%) ([2]; 40° C. open air, Initial stage): 99.38% | Water content (%) ([2]; 40° C. open air, Initial stage): 7.89% | stability during the storage ([2]; pitavastatin calcium which has become amorphous): very poor stability
Structure (SMILES): O=C(O)C[C@H](O)C[C@H](O)/C=C/c1c(C2CC2)nc2ccccc2c1-c1ccc(F)cc1 [Pitavastatin calcium, monocalcium bis[(3R,5S,6E)-7-(2-cyclopropyl-4-(4-fluorophenyl)-3-quinolyl)-3,5-dihydroxy-6-heptenoate]]
crystallinity (powder X-ray diffraction) [1]: decrease to a state close to an amorphous state
